# Literature values in Sander's compilation of Henry's law constants (doi:10.1007/978-1-4612-3850-8_1).
# “And” between values parts separate entries of the source, which are not always exact repeats. Equal values may be shown once.
# Experiment: Henry solubility constant Hcp at 293 K (mol/(m3 Pa))
# Settings: reference: Suntio et al. (1988); cited value
row,Compound,Henry solubility constant Hcp at 293 K
1,"CC1=CC(=O)CC(C)(C)C1 [3,5,5-trimethyl-2-cyclohexen-1-one]",1.8
2,CNC(=O)O/N=C/C(C)(C)SC [aldicarb],1.9
3,ClC1=C(Cl)[C@]2(Cl)[C@@H]3[C@@H]4C[C@@H]([C@H]5O[C@@H]45)[C@@H]3[C@@]1(Cl)C2(Cl)Cl [dieldrin],50
4,ClC1(Cl)C2(Cl)C3(Cl)C4(Cl)C(Cl)(Cl)C5(Cl)C3(Cl)C1(Cl)C5(Cl)C24Cl (centres undefined) [mirex],0.00099
5,"ClC(Cl)=C(c1ccc(Cl)cc1)c1ccccc1Cl [o,p'-DDE]",0.14
6,C=CC=O [propenal],0.18
7,"ClC1C(Cl)C(Cl)C(Cl)C(Cl)C1Cl (centres undefined) [γ-1,2,3,4,5,6-hexachlorocyclohexane]",20

# Experiment: Henry solubility constant Hcp at 298.15 K (mol/(m3 Pa))
# Settings: reference: Suntio et al. (1988); cited value
row,Compound,Henry solubility constant Hcp
1,"Clc1ccc(C(c2ccc(Cl)cc2)C(Cl)(Cl)Cl)cc1 [1,1,1-trichloro-2,2-bis-(4-chlorophenyl)-ethane]",0.17
2,"ClC(Cl)=C(c1ccc(Cl)cc1)c1ccc(Cl)cc1 [1,1-dichloro-2,2-bis-(4-chlorophenyl)-ethene]",0.45
3,ClC1=C(Cl)[C@]2(Cl)C3C(Cl)C(Cl)CC3[C@@]1(Cl)C2(Cl)Cl (some centres undefined) [chlordane],0.2 and 0.11
4,ClC1=C(Cl)[C@]2(Cl)[C@@H]3[C@H]4C[C@H]([C@@H]5O[C@H]45)[C@@H]3[C@@]1(Cl)C2(Cl)Cl [endrin],5600
5,Clc1ccc(C(c2ccccc2Cl)C(Cl)Cl)cc1 (centres undefined) [mitotane],560
6,"ClC1C(Cl)C(Cl)C(Cl)C(Cl)C1Cl (stereo not drawn) [α-1,2,3,4,5,6-hexachlorocyclohexane]",1.8
7,"ClC1C(Cl)C(Cl)C(Cl)C(Cl)C1Cl (stereo not drawn) [β-1,2,3,4,5,6-hexachlorocyclohexane]",56
